Among the data in ChEMBL document CHEMBL3991601, “The target landscape of clinical kinase drugs” (Science, 2017) are Kd values, retold here.

Test [1] has as its target T1, Bifunctional phosphoribosylaminoimidazole carboxylase/phosphoribosylaminoimidazole succinocarboxamide synthetase (Homo sapiens, UniProt P22234).
T1 sequence (P22234 whole entry): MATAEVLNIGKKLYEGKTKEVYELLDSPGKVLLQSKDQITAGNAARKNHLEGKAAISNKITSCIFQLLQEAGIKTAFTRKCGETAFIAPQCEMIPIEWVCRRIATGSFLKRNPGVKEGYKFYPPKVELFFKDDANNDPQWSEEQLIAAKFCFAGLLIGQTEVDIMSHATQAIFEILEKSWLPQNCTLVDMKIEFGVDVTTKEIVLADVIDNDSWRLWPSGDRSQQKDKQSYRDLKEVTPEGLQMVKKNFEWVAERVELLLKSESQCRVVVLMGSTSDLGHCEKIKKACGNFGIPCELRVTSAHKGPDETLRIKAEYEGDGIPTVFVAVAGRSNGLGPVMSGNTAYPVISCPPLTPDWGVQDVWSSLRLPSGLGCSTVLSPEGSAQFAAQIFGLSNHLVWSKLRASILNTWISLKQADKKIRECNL

Test [2] concerns the target T2, Calcium/calmodulin-dependent protein kinase type IV (Homo sapiens, UniProt Q16566).
T2 sequence (Q16566 whole entry): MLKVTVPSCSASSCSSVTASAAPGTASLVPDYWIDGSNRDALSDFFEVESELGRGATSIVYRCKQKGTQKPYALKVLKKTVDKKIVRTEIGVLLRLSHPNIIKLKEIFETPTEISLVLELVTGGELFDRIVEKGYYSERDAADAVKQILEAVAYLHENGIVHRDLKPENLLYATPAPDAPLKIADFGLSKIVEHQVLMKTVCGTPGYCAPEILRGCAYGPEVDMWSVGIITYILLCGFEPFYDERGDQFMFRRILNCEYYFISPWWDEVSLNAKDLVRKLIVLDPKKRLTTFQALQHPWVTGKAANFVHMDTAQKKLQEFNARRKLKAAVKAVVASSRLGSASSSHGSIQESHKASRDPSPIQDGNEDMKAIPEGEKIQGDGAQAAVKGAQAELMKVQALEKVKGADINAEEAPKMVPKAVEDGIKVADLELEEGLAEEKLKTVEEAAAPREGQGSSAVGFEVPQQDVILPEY

In test [3] the target is MAP kinase-activated protein kinase 2 (Homo sapiens, UniProt P49137).
The target in test [4] is T3, Serine/threonine-protein kinase TAO2 (Homo sapiens, UniProt Q9UL54).
T3 sequence (Q9UL54 whole entry): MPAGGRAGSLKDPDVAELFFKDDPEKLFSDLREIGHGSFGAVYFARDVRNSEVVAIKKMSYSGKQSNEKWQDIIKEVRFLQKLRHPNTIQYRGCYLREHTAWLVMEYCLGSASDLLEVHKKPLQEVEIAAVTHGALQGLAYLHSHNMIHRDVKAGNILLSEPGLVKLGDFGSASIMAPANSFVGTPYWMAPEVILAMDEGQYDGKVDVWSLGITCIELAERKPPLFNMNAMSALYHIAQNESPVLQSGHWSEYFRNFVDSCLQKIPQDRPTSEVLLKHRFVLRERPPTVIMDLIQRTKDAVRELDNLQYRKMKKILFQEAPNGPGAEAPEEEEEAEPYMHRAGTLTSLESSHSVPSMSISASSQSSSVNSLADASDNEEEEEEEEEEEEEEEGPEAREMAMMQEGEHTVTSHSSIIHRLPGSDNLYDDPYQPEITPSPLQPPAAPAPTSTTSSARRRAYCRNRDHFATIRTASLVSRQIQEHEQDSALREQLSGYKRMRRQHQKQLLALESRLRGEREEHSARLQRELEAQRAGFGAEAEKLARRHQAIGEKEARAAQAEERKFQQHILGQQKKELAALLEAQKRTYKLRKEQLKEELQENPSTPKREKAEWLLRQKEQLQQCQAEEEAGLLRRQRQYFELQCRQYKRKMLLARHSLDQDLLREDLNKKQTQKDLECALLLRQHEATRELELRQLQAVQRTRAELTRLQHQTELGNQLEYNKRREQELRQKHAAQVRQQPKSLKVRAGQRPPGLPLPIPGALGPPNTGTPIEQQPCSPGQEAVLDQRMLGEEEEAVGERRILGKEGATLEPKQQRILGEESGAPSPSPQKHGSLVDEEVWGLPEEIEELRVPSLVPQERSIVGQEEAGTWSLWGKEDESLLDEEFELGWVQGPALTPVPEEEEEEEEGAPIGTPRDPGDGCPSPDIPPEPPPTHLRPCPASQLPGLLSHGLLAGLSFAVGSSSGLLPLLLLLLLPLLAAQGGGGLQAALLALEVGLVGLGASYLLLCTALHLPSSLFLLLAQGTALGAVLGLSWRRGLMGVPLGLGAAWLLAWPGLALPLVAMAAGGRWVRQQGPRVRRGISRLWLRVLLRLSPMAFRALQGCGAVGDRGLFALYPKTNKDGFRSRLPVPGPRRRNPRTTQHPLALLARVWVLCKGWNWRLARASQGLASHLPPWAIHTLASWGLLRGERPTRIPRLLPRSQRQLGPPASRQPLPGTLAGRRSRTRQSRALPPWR

Another test deals with TGF-beta receptor type-2 (Homo sapiens, UniProt P37173).
For test [5], the target named is Tyrosine-protein kinase FRK (Homo sapiens, UniProt P42685).
Test [6] deals with T4, Signal recognition particle receptor subunit alpha (Homo sapiens, UniProt P08240).
T4 sequence (P08240 whole entry): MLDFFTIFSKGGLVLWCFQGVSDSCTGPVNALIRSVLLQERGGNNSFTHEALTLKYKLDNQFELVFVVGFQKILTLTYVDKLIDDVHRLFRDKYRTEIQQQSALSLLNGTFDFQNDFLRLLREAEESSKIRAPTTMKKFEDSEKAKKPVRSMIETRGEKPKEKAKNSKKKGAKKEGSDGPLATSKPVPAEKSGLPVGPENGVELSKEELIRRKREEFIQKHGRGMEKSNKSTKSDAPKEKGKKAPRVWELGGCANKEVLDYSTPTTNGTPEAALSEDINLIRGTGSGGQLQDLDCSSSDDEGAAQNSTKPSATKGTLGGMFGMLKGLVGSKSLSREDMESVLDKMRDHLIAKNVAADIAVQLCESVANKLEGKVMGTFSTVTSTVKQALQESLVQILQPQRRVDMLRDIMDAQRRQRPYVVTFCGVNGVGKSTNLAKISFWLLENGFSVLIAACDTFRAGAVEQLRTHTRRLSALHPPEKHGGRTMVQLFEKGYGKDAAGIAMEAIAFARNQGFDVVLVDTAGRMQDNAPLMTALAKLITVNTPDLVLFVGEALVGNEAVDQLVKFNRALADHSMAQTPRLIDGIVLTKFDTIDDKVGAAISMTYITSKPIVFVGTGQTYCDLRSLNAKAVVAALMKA

Active and inactive are the calls of the source. For most assays here, no stated cut-off is given here; in the data, actives have a measured Kd and inactives only a lower limit.

Sequence of MAP kinase-activated protein kinase 2 (P49137 whole entry): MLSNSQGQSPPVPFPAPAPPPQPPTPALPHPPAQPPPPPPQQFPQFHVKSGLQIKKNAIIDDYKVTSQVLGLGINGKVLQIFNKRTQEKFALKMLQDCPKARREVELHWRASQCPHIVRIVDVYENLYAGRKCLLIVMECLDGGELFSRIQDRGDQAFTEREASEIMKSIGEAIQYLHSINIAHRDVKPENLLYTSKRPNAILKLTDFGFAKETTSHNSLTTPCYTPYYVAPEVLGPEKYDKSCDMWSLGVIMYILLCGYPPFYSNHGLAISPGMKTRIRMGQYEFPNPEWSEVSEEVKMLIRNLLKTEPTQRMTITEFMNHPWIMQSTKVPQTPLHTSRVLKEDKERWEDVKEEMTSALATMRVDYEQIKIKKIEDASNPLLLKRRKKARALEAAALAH
Sequence of TGF-beta receptor type-2 (P37173 whole entry): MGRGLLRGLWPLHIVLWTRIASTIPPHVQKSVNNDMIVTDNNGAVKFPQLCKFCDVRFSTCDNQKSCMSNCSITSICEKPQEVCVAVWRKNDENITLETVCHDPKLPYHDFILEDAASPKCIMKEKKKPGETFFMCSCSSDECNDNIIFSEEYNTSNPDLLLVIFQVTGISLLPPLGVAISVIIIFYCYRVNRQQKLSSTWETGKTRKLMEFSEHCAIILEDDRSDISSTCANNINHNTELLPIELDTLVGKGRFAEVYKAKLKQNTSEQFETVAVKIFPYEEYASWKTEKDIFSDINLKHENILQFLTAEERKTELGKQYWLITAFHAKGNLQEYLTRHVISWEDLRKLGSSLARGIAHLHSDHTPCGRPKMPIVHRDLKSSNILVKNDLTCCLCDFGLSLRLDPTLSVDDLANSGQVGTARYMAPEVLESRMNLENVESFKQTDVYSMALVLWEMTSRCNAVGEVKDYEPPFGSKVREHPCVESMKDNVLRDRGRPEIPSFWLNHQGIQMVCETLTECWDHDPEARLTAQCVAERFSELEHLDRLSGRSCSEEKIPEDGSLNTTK
Sequence of Tyrosine-protein kinase FRK (P42685 whole entry): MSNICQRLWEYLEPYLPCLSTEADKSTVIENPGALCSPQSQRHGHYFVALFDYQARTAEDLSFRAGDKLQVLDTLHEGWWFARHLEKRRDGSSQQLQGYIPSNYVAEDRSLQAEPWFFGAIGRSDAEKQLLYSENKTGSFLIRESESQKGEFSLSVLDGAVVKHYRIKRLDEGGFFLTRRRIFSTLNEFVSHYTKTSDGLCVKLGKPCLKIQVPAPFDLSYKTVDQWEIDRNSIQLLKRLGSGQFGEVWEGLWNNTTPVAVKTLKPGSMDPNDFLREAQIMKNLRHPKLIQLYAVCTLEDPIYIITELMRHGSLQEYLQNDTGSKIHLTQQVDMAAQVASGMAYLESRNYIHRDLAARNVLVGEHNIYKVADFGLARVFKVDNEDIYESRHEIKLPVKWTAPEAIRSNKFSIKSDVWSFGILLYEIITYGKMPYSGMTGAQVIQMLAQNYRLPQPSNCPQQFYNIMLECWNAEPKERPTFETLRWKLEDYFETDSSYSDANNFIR

For `COc1cc(F)c(F)c(Nc2ccc(I)cc2F)c1NS(=O)(=O)C1(C[C@H](O)CO)CC1` [REFAMETINIB], the Kd (in test [1]; in test [2]; in test [3]; in test [4]; at TGF-beta receptor type-2; in test [5]) was > 30 µM (inactive) throughout.
As to `O[C@H]1CC[C@H](Nc2ncc3nc(Nc4c(F)cc(F)cc4F)n([C@H]4CCOC4)c3n2)CC1` [TANZISERTIB], the Kd in test [1] was > 30 µM (inactive); in test [2], > 30 µM (inactive); in test [3], 0.934 µM (active); in test [4], > 30 µM (inactive); on TGF-beta receptor type-2, > 30 µM (inactive); in test [5], > 30 µM (inactive).
On to `CC1(C)CNc2cc(NC(=O)c3cccnc3NCc3ccncc3)ccc21` [MOTESANIB], for which the Kd in test [6] and in test [1] was > 30 µM (inactive) each time.
As to `CC1(COc2ccc3c(c2)ncn3-c2ccc3cccc(N4CCC(N)CC4)c3n2)COC1` [CRENOLANIB], the Kd (in test [1]; in test [2]; in test [3]; in test [4]; on TGF-beta receptor type-2; in test [5]) was > 30 µM (inactive) in each case.
On to `COc1cc2c(N3CCN(C(=O)Nc4ccc(OC(C)C)cc4)CC3)ncnc2cc1OCCCN1CCCCC1` [TANDUTINIB], for which the Kd in test [6] and in test [1] was > 30 µM (inactive) throughout.
On to `COc1ccc(-c2ccc3ncc4c(c3c2)n(-c2ccc(N3CCNCC3)c(C(F)(F)F)c2)c(=O)n4C)cn1` [BGT-226 FREE BASE], for which the Kd (in test [1]; in test [2]; in test [3]; in test [4]; at TGF-beta receptor type-2; in test [5]) was > 30 µM (inactive) throughout.
On to `CCN(CCCOc1ccc2c(Nc3cc(CC(=O)Nc4cccc(F)c4)n[nH]3)ncnc2c1)CCOP(=O)(O)O` [BARASERTIB], for which the Kd (in test [1]; in test [2]; in test [3]; in test [4]; at TGF-beta receptor type-2; in test [5]) was > 30 µM (inactive) in each case.
As for `CN(C)C/C=C/C(=O)Nc1cc2c(Nc3ccc(F)c(Cl)c3)ncnc2cc1O[C@H]1CCOC1` [AFATINIB], the Kd in test [6] and in test [1] was > 30 µM (inactive) throughout.
For the compound `Cn1cnc2c(F)c(Nc3ccc(Br)cc3Cl)c(C(=O)NOCCO)cc21` [SELUMETINIB], the Kd in test [6] and in test [1] was > 30 µM (inactive) throughout.
Turning to `COc1cccc(Nc2ncnn3ccc(CN4CC[C@@H](N)[C@H](O)C4)c23)c1` [BMS-690514], the Kd is > 30 µM (inactive) in test [1]; > 30 µM (inactive) in test [2]; > 30 µM (inactive) in test [3]; > 30 µM (inactive) in test [4]; > 30 µM (inactive) on TGF-beta receptor type-2; 0.795 µM (active) in test [5].
On to `C=CCN(/C=C1/C(=O)O[C@H](COC)[C@@]2(C)C1=C(O)C(=O)C1=C2[C@H](OC(C)=O)C[C@]2(C)C(=O)CC[C@@H]12)CC=C` [SONOLISIB], for which the Kd (in test [1]; in test [2]; in test [3]; in test [4]; on TGF-beta receptor type-2; in test [5]) was > 30 µM (inactive) throughout.
As to `Cc1c(NC(=O)OC[C@@H]2COCCN2)cn2ncnc(Nc3ccc4c(cnn4Cc4cccc(F)c4)c3)c12` [AC-480], the Kd (in test [1]; in test [2]; in test [3]; in test [4]; at TGF-beta receptor type-2; in test [5]) was > 30 µM (inactive) in each case.
Take `CN1CCN(c2nc(C3=C(c4c[nH]c5ccccc45)C(=O)NC3=O)c3ccccc3n2)CC1` [SOTRASTAURIN]: the Kd (in test [1]; in test [2]; in test [3]; in test [4]; at TGF-beta receptor type-2; in test [5]) was > 30 µM (inactive) each time.
On to `CC(C)CC(=O)Nc1[nH]nc2c1CN(C(=O)C1CCN(C)CC1)C2(C)C` [PHA-793887], for which the Kd (in test [1]; in test [2]; in test [3]; in test [4]; on TGF-beta receptor type-2; in test [5]) was > 30 µM (inactive) in each case.
With `COc1cc2c(Oc3ccc4[nH]c(C)cc4c3F)ncnc2cc1OCCCN1CCCC1` [CEDIRANIB], the Kd in test [6] and in test [1] was > 30 µM (inactive) in each case.
As for `C[C@]1(O)C[C@@H](c2nc(-c3ccc4ccc(-c5ccccc5)nc4c3)c3c(N)nccn32)C1` [LINSITINIB], the Kd (in test [6]; in test [1]; in test [2]; at TGF-beta receptor type-2) was > 30 µM (inactive) in each case.
As for `CN(c1ncccc1CNc1nc(Nc2ccc3c(c2)CC(=O)N3)ncc1C(F)(F)F)S(C)(=O)=O` [PF-00562271], the Kd (in test [6]; in test [1]; in test [2]; in test [4]; on TGF-beta receptor type-2) was > 30 µM (inactive) in each case.
As for `C[C@@]1(C(=O)Nc2ccc(F)nc2)CCCN1c1nc(Nc2cc(C3CC3)n[nH]2)c2cccn2n1` [BMS-754807], the Kd in test [6] and in test [1] was > 30 µM (inactive) each time.

The Kd is the constant that tells how readily two partners part at equilibrium.
